Measurements published in the METLIN SMRT retention time set (Domingo-Almenara et al. 2019).

Test: gradient 5% acetonitrile 3 min, to 50% in 2 min, to 85% in 15 min, held 3 min, 100 µL/min
Conditions: column: Zorbax Extend-C18 2.1 x 50 mm; eluents: water / acetonitrile, 0.1% formic acid
Method in brief: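 Data were gathered over 3 months by HPLC coupled to a quadrupole time-of-flight mass spectrometer, operated in positive and negative ionization mode. Mixtures of ~100 pure standards ran on a Zorbax Extend-C18 column (2.1 × 50 mm, 1.8 μm) at 100 μL/min, with water and acetonitrile each containing 0.1% formic acid and dead and dwell volumes of 40 μL and 900 μL. Retention time was read from adduct peaks picked by computer and checked manually.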

| RP-LC retention time [s] | SMILES |
| --- | --- |
| 1130 | CCOC(=O)c1ccccc1NC(=O)Cn1c(=O)c(CCC(=O)NC2CCCC2)nc2ccccc21 |
| 891 | COc1ccccc1CCC(=O)N1CCC[C@@H]1C(=O)NCCc1csc(-c2ccccc2)n1 |
| 723 | CC(C)c1noc(-c2cccnc2N2CCCN(Cc3ccccc3Cl)CC2)n1 |
| 1170 | COc1ccc(-c2nnc(SCc3ccc(Br)cc3)o2)cc1 |
| 690 | CCCCN(C)c1ncc(C(=O)NCc2ccccc2)c(N)n1 |
| 818 | CC1(C(=O)NCc2ccccc2)CN(S(C)(=O)=O)CC(=O)N1Cc1ccccc1F (centres undefined) |
| 871 | CCN(Cc1ccccc1)C(=O)C1CCN(c2ncnc3c2oc2ccccc23)CC1 |
| 1040 | Cc1cccc(-c2nnc(Cc3nc(-c4ccccc4)no3)o2)c1 |
| 903 | COc1ccc(-c2nc3ncccn3c2Nc2cccc(C(F)(F)F)c2)cc1 |
| 1010 | CCOc1ccc(-c2nc(C3CC(=O)N(c4ccc(OC)cc4)C3)no2)cc1 (centres undefined) |
| 705 | COc1ccc(-c2cnc(SCC(=O)Nc3cc(C)on3)n2Cc2ccco2)cc1 |
| 821 | CCC(C)NC(=O)c1cnn(-c2ccc(-c3nc(C)no3)cn2)c1C (centres undefined) |
| 893 | CCC1Oc2ccc(S(=O)(=O)N3CCC(C(=O)NCc4cccc(C)c4)CC3)cc2NC1=O (centres undefined) |
| 851 | Cn1c(=O)sc2cc(S(=O)(=O)N3CCC(C(=O)NCc4ccccc4)CC3)ccc21 |
| 831 | Cn1c(=O)oc2cc(-c3noc(-c4ccc(F)cc4)n3)ccc21 |
| 707 | Cc1nc(-c2ccc3c(c2)n(CC(=O)Nc2ccc(S(N)(=O)=O)cc2)c(=O)n3C(C)C)no1 |
| 1100 | CCOc1ccc(C2Cn3nnc(-c4nc(-c5ccccc5F)no4)c3CO2)cc1 (centres undefined) |
| 1010 | CCN(Cc1ccccc1)C(=O)c1noc2c1CCCC2 |
| 736 | O=C(Cn1c(=O)c(CCC(=O)NC2CC2)nc2ccccc21)NCc1ccccc1Br |

| RP-LC retention time [s] | SMILES |
| --- | --- |
| 964 | CCc1nc(OCC(=O)Nc2cc(Cl)ccc2Cl)c2ccccc2n1 |
| 708 | Brc1ccc(-c2ccc(CNc3ncn[nH]3)o2)cc1 |
| 934 | COc1ccc(CN2C=C(C(=O)OCc3c(C)noc3C)C(C)=NS2(=O)=O)cc1 |
| 1210 | O=C1CC(c2noc(-c3cccc(OC(F)(F)F)c3)n2)CN1c1ccc(F)c(Cl)c1 (centres undefined) |
| 782 | Cc1ccc(CNC(=O)c2ccc(-c3cncnc3)nc2)cc1C |
| 611 | Cn1c(=O)sc2cc(S(=O)(=O)N3CCC(C(=O)NCc4ccccn4)CC3)ccc21 |
| 654 | COc1ccc(C2(C(=O)N3CCC(Cc4ncc(C)n4CC4CC4)C3)CC2)cc1 (centres undefined) |
| 1280 | Cc1ccccc1-c1noc(C2CCCN2S(=O)(=O)c2cccc(Cl)c2C)n1 (centres undefined) |
| 1020 | Cc1nc2cc(-c3noc(CCc4c[nH]c5ccccc45)n3)ccc2o1 |
| 676 | COCCN1C(=O)Cc2ccccc2C1C(=O)NCc1ccco1 (centres undefined) |
| 763 | CCCNC(=O)N1CCC(c2noc(-c3ccccc3)n2)C1 (centres undefined) |
| 1030 | COc1ccc(-c2nc(Cn3ccn4nc(-c5ccccc5)cc4c3=O)c(C)o2)c(OC)c1 |
| 940 | O=C(NCc1noc(COc2ccccc2)n1)c1ccc(-c2noc(C3CC3)n2)cc1 |
| 879 | COc1cc(OC)cc(C(=O)N2CCCC2c2nc(-c3ccc(OC)c(OC)c3)no2)c1 (centres undefined) |
| 632 | COc1ccc(-c2nc(C)cc(C)c2CNC(=O)c2ccc3c(c2)OCO3)cc1 |
| 826 | N#Cc1ccc(C(=O)N2CCN(c3cc(-c4ccc(Cl)cc4)[nH]n3)CC2)cc1 |
| 683 | Cc1ccc(C(CNC(=O)c2cc(-c3ccccc3)on2)N(C)C)o1 (centres undefined) |
| 1020 | CCCOC(=O)c1ccc(Nc2nc(C(=O)OCC)nc3ccccc23)cc1 |
| 707 | COc1ccccc1OCCNC(=O)C1CCN(c2nnc3ccc(Cl)cn23)CC1 |

Further lines, the compound ahead of its results:

| SMILES | RP-LC retention time [s] |
| --- | --- |
| COC[C@@H]1OCCN(S(=O)(=O)c2cc(OC)ccc2OC)[C@H]1c1ccccc1 | 896 |
| CS(=O)(=O)N1CCN(C(=O)CCn2nnc3ccccc3c2=O)CC1 | 604 |
| Cc1ccc(CNC(=O)N2CCN(c3cnn4c(C)nnc4c3)CC2)cc1 | 568 |
| CCN1CCN(C(=O)C2CCN(S(=O)(=O)c3ccc4c(c3)NC(=O)CO4)CC2)CC1 | 664 |
| O=C(N[C@@H]1CN(Cc2ccccc2)C[C@H]1CO)C1(c2ccccc2)CC1 | 652 |
| COc1ccc2c(c1)c(CN1CCOCCNC(=O)CC1)cn2C(C)C | 642 |
| CC(=O)N1CCc2ccc(NC(=O)c3cccc(Br)c3)cc21 | 774 |
| CCc1nc(N)n(CC(=O)Nc2ccc(C)cc2C)c(=O)c1C | 659 |
| COc1ccc(Cl)c2c(=O)c3c([nH]c12)CCN(CC(=O)Nc1cc(C)ccc1C)C3 | 649 |
| CCc1nnc(-c2cccn2CC(=O)NCc2cccc(Br)c2)o1 | 835 |
| CC1CCN(C(=O)CN2C(=O)C3CCCCN3c3ccc(C(=O)N(C)C)cc32)CC1 (centres undefined) | 752 |
| CCCN1C(=O)c2c(C(=O)NCc3ccc(N(C)C)cc3)ncn2CC1(C)C(=O)NCCC(C)C (centres undefined) | 649 |
| CC(C)(C(N)=O)c1ccccc1 | 712 |
| COc1ccc(NS(=O)(=O)c2ccc(-c3nnc(C4CCC4)o3)o2)cc1Cl | 936 |
| CCc1ccc2c(c1)-c1ccccc1S(=O)(=O)N2CC(=O)NCCCn1ccnc1 | 675 |
| O=c1n(CC2CC2)nc2n1CCN(Cc1ccncc1)C2 | 511 |
| CCc1noc([C@@H]2CC(F)(F)CN2C(=O)Cn2cc(C)cn2)n1 | 718 |
| CCOC(=O)c1c(C)[nH]c(C(=O)N2CCC(C(C)C(=O)NCc3ccc4c(c3)OCO4)CC2)c1C (centres undefined) | 778 |
| O=C1NCCOCCCN(C(=O)Nc2ccccc2)[C@H]2CCCC[C@@H]12 | 672 |
| COc1ccc(C(=O)CC2(O)C(=O)Nc3ccc(C)cc32)cc1OC (centres undefined) | 670 |
| CCc1noc(NC(C)=O)c1-c1ccc(OC)c(S(=O)(=O)Nc2cc(Cl)ccc2C)c1 | 870 |
| O=C(c1cn[nH]c1)N1CCC(c2nc(CCOCC3CC3)no2)C1 (centres undefined) | 626 |
| COCCNC(=O)Nc1nc(CSCc2cc(OC)cc(OC)c2)cs1 | 734 |
| Cc1ccn2cc(C(=O)N3CCN(c4ccccc4)CC3)nc2c1 | 634 |
| CC1(C(=O)NC2CCCCCCC2)CN(S(C)(=O)=O)CC(=O)N1c1ccccc1Cl (centres undefined) | 924 |
| CC1CC(C)CN(CCCNC(=O)CCCn2c(=O)c3cccn3c3ccccc32)C1 (centres undefined) | 659 |

| SMILES | RP-LC retention time [s] |
| --- | --- |
| Cc1nc(Nc2ccc(F)cn2)sc1C(=O)NC(C)c1ccc(F)cc1 (centres undefined) | 887 |
| CCCNC(=O)CCC1CCN(c2cc(NCCC)ncn2)CC1 | 606 |
| CCC(C)NC(=O)N1CCN(Cc2nc3cccnc3n2-c2cccc(C)c2)CC1 (centres undefined) | 646 |
| CCOc1ccc2c(c1)SC(CC(=O)Nc1ccccc1[N+](=O)[O-])C(=O)N2 (centres undefined) | 822 |
| Cc1cccc(S(=O)(=O)N2C[C@@H](F)C[C@H]2C(=O)N2CCc3ccccc3C2)c1 | 906 |
| CNc1nnc(-c2nnc(C)o2)c2ccccc12 | 567 |
| CC(=O)N1c2ccc(S(=O)(=O)N3CCCCC3)cc2CC1C(=O)Nc1ccc(C)c(C)c1 (centres undefined) | 966 |
| COc1ccc(Cl)cc1NC(=O)c1c(N)c(C(=O)c2cccs2)n2ccccc12 | 1140 |
| O=C(CCC[C@@H]1[C@H]2CCCN3CCC[C@@H](CN1C(=O)COc1ccc(Cl)cc1)[C@@H]23)N1CCOCC1 | 626 |
| CCn1cc(CCNC(=O)Nc2ccc(C)cc2C)c2cccnc21 | 705 |
| Cc1ccc(S(=O)(=O)N2CCC(C)(C(=O)NCc3ccccc3C)CC2)cc1C | 1030 |
| O=C(NC1CCc2nnc(C3CC3)n2CC1)c1cnco1 (centres undefined) | 537 |
| O=C(Cn1nc(C(=O)N2CCCC2)c2ccccc21)N1CCN(Cc2ccc3c(c2)OCO3)CC1 | 622 |
| COc1cc2nccc(Oc3ccc(NC(=O)C4(C(=O)Nc5ccc(F)cc5)CC4)cc3)c2cc1OC | 833 |
| CCN1C(=O)C(C)(C(=O)NCc2ccc(F)c(Cl)c2)Oc2cccnc21 (centres undefined) | 902 |
| Cc1noc(C2CCCCCN2C(=O)NC(C)C)n1 (centres undefined) | 708 |
| O=C(CSc1ccc(-c2ccco2)nn1)N1CCCCC1 | 690 |
| COc1ccc(OC)c(NC(=O)Cn2cnc3nc4c(cc3c2=O)CCCC4)c1 | 676 |
| O=C(Nc1cccc(Cl)c1)C1CCCN(S(=O)(=O)c2c[nH]c(C(=O)N3CCCCCC3)c2)C1 (centres undefined) | 964 |
| Nc1ncnc(NC2CCCC2)c1[N+](=O)[O-] | 679 |
| O=C(NCCCN1CCc2ccccc2C1)c1c(OCC2CC2)cc(=O)n2c1CCCCC2 | 566 |
| NC(=O)c1c(NC(=O)C2CCCN(C(=O)c3cc(F)cc(F)c3)C2)sc2c1CCCC2 (centres undefined) | 1230 |
| CNC(=O)CN1CCC(Oc2cc3c(Nc4cccc(Cl)c4F)ncnc3cc2OC)CC1 | 610 |
| COCC(=O)NC1CCN(c2ccccc2)C1=O (centres undefined) | 617 |
| COc1cccc(OC)c1OCC(O)CN1CCN(c2ccccc2)CC1 (centres undefined) | 668 |
